Common to all, as to type: cell-based, human
Assay [1] deals with H2009 cells. As to the kind of experiment: Scratch wound healing assay. The protocol: Scratch wound healing assay. Cells were seeded on a 96-well Image Lock (Essen BioScience, Ann Arbor, Mich., USA) plate to reach 90% confluence by the next day. After cell adherence, 96 uniform wounds were created simultaneously using the WoundMaker (Essen BioScience) tool. Cells were washed once with serum-free medium and replenished with complete medium. To monitor wound healing, the plate was placed in the IncuCyte S3 Live-Cell Analysis System (Essen BioScience) and images were acquired every hour. Data analysis was generated by the IncuCyte software using a set confluence mask to measure relative wound density over time.
To discern the effect of knocking down ITGB4 on cell migration, H1993 and H2009 cells were transfected with the control or ITGB4-specific siRNA in 6-well plates and 12 hours post transfection, the cells were trypsinized and reseeded at high density in a 96-well plate. […] While both cell lines transfected with the control siRNA achieved 100% confluency of the wound within 48 hours, H1993 and 2009 cells in which ITGB4 was knocked down reached ˜60% and ˜80% confluency, respectively; neither cell line reached 100% confluency even after 96 h (FIG. 3F). Next the rate of wound closure was estimated. The rate was determined by dividing initial wound width by the time taken to close the wound. […] Similarly, in the case of the H2009 cells, the wound width closure rate dropped from 22 μm/h to about 18 μm/h (FIG. 3G). […] Additionally, up regulation of expression of other integrin β forms in response to ITGB4 knockdown was checked and an increase in the expression of ITGB1, ITGB2, and ITGB3 at mRNA level was found (FIG. 3I). The effect of ITGB3 silencing in the ITGB4 knocked down cells was further tested but no significant difference in their proliferation was found (FIG. 3J).

Assay [2] relates to H2009 cells. The assay can be described thus: IncuCyte cell proliferation and caspase-3/7 apoptosis assay. To be noted: 80 nM, 72 hours, among eleven compounds. The method, then: Cell proliferation and apoptosis assay. Cell proliferation assays were performed using cell lines stably transfected with NucLight Red Lentivirus (Essen Bioscience) to accurately visualize and count the nucleus of a single cell. Cells were seeded on a 96-well plate and allowed to adhere for 24 hours. Test compounds were added at indicated concentrations. Caspase-3/7 Green Apoptosis Reagent (Essen Bioscience) was also added as a green fluorescent indicator of caspase-3/7-mediated apoptotic activity. To monitor cell proliferation and apoptosis over time, the plate was placed in the IncuCyte S3 Live-Cell Analysis System (Essen BioScience) and images were acquired every 2 hours. Data analysis was generated by the IncuCyte software using a red fluorescence mask to accurately count each cell nucleus and a green fluorescence mask to measure apoptosis over time.
To determine whether the inhibition in cell proliferation associated with ITGB4 knockdown was due to enhanced apoptosis or reduced cell division (cytostatic), the Essen Bioscience Caspase-3/7 Green apoptosis assay in live cells was conducted. The NucView™[…], a DNA intercalating dye was used to enable quantification of apoptosis over time. The dye is impermeable and non-toxic to cells but once the cell membrane is permeabilized by caspase-3/7, the dye enters the cell and gets activated due to change in pH leading to the generation of green fluorescence that is then detected in real time and quantified using the IncuCyte System (FIG. 4B).
To address this, H1993 and H2009 cells were treated with cisplatin for 3 days and the changes were analyzed by immunoblotting. […] Next, H1993 and H2009 cells were transiently transfected with ITGB4 siRNA and 24 hours post-transfection they were treated with 10 μM cisplatin and cell proliferation and caspase activity were determined. […] However, in response to cisplatin in ITGB4 knockdown cells, the fold change dipped to <1, alluding to a cytotoxic effect (FIG. 4C). […] However, cell death was not due to caspase activation but appeared to be due to cell bursting which is seen in anoikis (FIGS. 3K and 3L).

Assay [3] relates to ITGB4 and PXN expression, γH2AX in H358 cells. The assay can be described thus: Immunoblot after sublethal dose. To be noted: 72 hours. The protocol: (§1) West blotting: Cell lysates were prepared with 1×RIPA buffer (MilliporeSigma) and denatured in 1× reducing sample buffer at 95° C. for 5 minutes. Protein samples (15 μg) were run on 4-15% TGX gels (Bio-Rad, Hercules, Calif., USA) and transferred onto nitrocellulose membranes (Bio-Rad). Blots were blocked with 5% non-fat milk in TBS-T for 1 hour at room temperature and probed with primary antibody diluted in 2.5% BSA in TBS-T overnight at 4° C. After three washes with TBS-T, blots were incubated with HRP-conjugated secondary antibodies for 2 hours at room temperature. After three more washes, bands of interest were visualized via chemiluminescence using Western Bright ECL HRP substrate (Advansta, Menlo Park, Calif., USA) and imaged with the ChemiDoc MP imager (Bio-Rad).
(§2) Then a sublethal dose was used to determine the effect of these compounds on ITGB4 and PXN expression and caspase activity (FIG. 9I). […] These eleven compounds were further screened in the cisplatin-resistant cell line H2009. […] Further, carfilzomib was tested in another cisplatin-resistant cell line H1993.

The subject of assay [4] is ITGB4, PXN, FAK, MET, γH2AX, cleaved PARP in H1993 cells. As to the kind of experiment: Immunoblot. The conditions noted are these: 50-200 nM carfilzomib. The method, then:
as §1, §2
On the technique in general: Immunoblotting shows a protein as a band on a membrane.

For assay [5], the system named is ITGB4, PXN, FAK, p27, phospho-Rb, γH2AX, cleaved PARP in H2009 cells. As to the kind of experiment: Immunoblot. To be noted: sublethal dose. The protocol:
as §1, §2

SMILES strings stand for the structures. “Also recorded” adds a separate entry of the source.

The results in this text go back to patent US20210283211A1, “COMPOSITIONS AND METHODS OF ALLEVIATING RESISTANCE TO CHEMOTHERAPY” (CITY OF HOPE, priority 2019, published 2021).

In the assay on H2009 cells [1] (200 nM, untreated >90%), `CC(C)C[C@H](NC(=O)[C@H](CCc1ccccc1)NC(=O)CN1CCOCC1)C(=O)N[C@@H](Cc1ccccc1)C(=O)N[C@@H](CC(C)C)C(=O)[C@@]1(C)CO1` [Carfilzomib] showed a wound confluency of 79%. Also, in the assay on H2009 cells [1] (sublethal dose (carfilzomib 50-200 nM)), the “cell migration / wound healing” value is “significant inhibition of wound healing and reduction in wound closure rate; also recorded: dose-dependent inhibition of cell migration”. For the same molecule, in the assay with H2009 cells [2], the “inhibitory effect in cell proliferation” value is recorded as “greatest inhibitory effect in cell proliferation”. In addition, in assay [3], the “apoptosis, DNA damage (γH2AX) and ITGB4 expression” value was “induced apoptosis and caused DNA damage”. For the same molecule, the “protein expression by immunoblot” value was “reduction in ITGB4 expression and increase in cleaved PARP and γH2AX” in assay [4]; “reduced ITGB4 and PXN expression; also recorded: reduced expression of ITGB4 and phospho-Rb (S807/811) and increased expression of p27, γH2AX, and cleaved PARP” in assay [5].
